# In PubChem BioAssay AID1963826 (Molecular Pharmacology Branch, DTP, NCI, 2024):
# Test system: 926638-142-R-J1-PDC complex spheroid viability
# Experiment: Anticancer human tumor 926638-142-R-J1-PDC patient-derived endometrial carcinoma cell line growth inhibition [POLQ]
# Settings: for IC50: curve of first compound; for viability, T/C: stronger effect = lower value
# How it was run: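 PDC + HUVEC + MSC complex spheroids; POLQ inhibitors ± partner drugs; top conc. at/near clinical Cmax, else 10 microM (SN-38 1 microM), half-log dilutions; 37 degrees C, 5% CO2.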
# [1] = second compound 0.0316 µM, first compound 0.0316 µM
# [2] = second compound 0.0316 µM, first compound 0.1 µM
# [3] = second compound 0.0316 µM, first compound 0.316 µM
# [4] = second compound 0.0316 µM, first compound 1 µM
# [5] = second compound 0.0316 µM, first compound 3.16 µM
# [6] = second compound 0.0316 µM, first compound 10 µM
# [7] = second compound 0.1 µM, first compound 0.0316 µM
# [8] = second compound 0.1 µM, first compound 0.1 µM
# [9] = second compound 0.1 µM, first compound 0.316 µM
# [10] = second compound 0.1 µM, first compound 1 µM
# [11] = second compound 0.1 µM, first compound 3.16 µM
# [12] = second compound 0.1 µM, first compound 10 µM
# [13] = second compound 0.316 µM, first compound 0.0316 µM
# [14] = second compound 0.316 µM, first compound 0.1 µM
# [15] = second compound 0.316 µM, first compound 0.316 µM
# [16] = second compound 0.316 µM, first compound 1 µM
# [17] = second compound 0.316 µM, first compound 3.16 µM
# [18] = second compound 0.316 µM, first compound 10 µM
# [19] = second compound 1 µM, first compound 0.0316 µM
# [20] = second compound 1 µM, first compound 0.1 µM
# [21] = second compound 1 µM, first compound 0.316 µM
# [22] = second compound 1 µM, first compound 1 µM
# [23] = second compound 1 µM, first compound 3.16 µM
# [24] = second compound 1 µM, first compound 10 µM
# [25] = second compound 3.16 µM, first compound 0.0316 µM
# [26] = second compound 3.16 µM, first compound 0.1 µM
# [27] = second compound 3.16 µM, first compound 0.316 µM
# [28] = second compound 3.16 µM, first compound 1 µM
# [29] = second compound 3.16 µM, first compound 3.16 µM
# [30] = second compound 3.16 µM, first compound 10 µM
# [31] = second compound 10 µM, first compound 0.0316 µM
# [32] = second compound 10 µM, first compound 0.1 µM
# [33] = second compound 10 µM, first compound 0.316 µM
# [34] = second compound 10 µM, first compound 1 µM
# [35] = second compound 10 µM, first compound 3.16 µM
# [36] = second compound 10 µM, first compound 10 µM
# 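Also: spheroids exposed to drugs for one week before readout.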
# 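For viability, T/C in this document: percent viability relative to DMSO vehicle control wells set as 100%.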
structure (smiles),measurement,setting,value
O=c1[nH]cc(F)c(=O)[nH]1 + Nc1ccc(C#CCN(C(=O)Cc2ncc(C(F)(F)F)cc2C(F)(F)F)c2ccc(F)cc2)nn1,IC50,second compound 0.0316 µM,> 10000 nM
same,IC50,second compound 0.1 µM,> 10000 nM
same,IC50,second compound 0.316 µM,> 10000 nM
same,IC50,second compound 1 µM,> 10000 nM
same,IC50,second compound 3.16 µM,> 10000 nM
same,IC50,second compound 10 µM,> 10000 nM
same,"viability, T/C",[1],101%
same,"viability, T/C",[2],107%
same,"viability, T/C",[3],92.8%
same,"viability, T/C",[4],82.9%
same,"viability, T/C",[5],86.5%
same,"viability, T/C",[6],80.7%
same,"viability, T/C",[7],100%
same,"viability, T/C",[8],116%
same,"viability, T/C",[9],107%
same,"viability, T/C",[10],83.4%
same,"viability, T/C",[11],90.8%
same,"viability, T/C",[12],78.8%
same,"viability, T/C",[13],85.5%
same,"viability, T/C",[14],98.1%
same,"viability, T/C",[15],102%
same,"viability, T/C",[16],97.8%
same,"viability, T/C",[17],85.5%
same,"viability, T/C",[18],83%
same,"viability, T/C",[19],103%
same,"viability, T/C",[20],85%
same,"viability, T/C",[21],99.4%
same,"viability, T/C",[22],75.9%
same,"viability, T/C",[23],77.7%
same,"viability, T/C",[24],76.8%
same,"viability, T/C",[25],97.7%
same,"viability, T/C",[26],93.5%
same,"viability, T/C",[27],88.1%
same,"viability, T/C",[28],92.5%
same,"viability, T/C",[29],82.1%
same,"viability, T/C",[30],70.2%
same,"viability, T/C",[31],102%
same,"viability, T/C",[32],81%
same,"viability, T/C",[33],93.2%
same,"viability, T/C",[34],85.7%
same,"viability, T/C",[35],78.2%
same,"viability, T/C",[36],74.3%
COc1ccc([C@@H](O)c2cc(-c3ncnc4cc(N5CCOCC5)ccc34)c(F)cc2Cl)nn1 + COC1C(OC(N)=O)C(O)C(Oc2ccc3c(O)c(NC(=O)c4ccc(O)c(CC=C(C)C)c4)c(=O)oc3c2C)OC1(C)C,IC50,second compound 0.0316 µM,434 nM
same,IC50,second compound 0.1 µM,454 nM
same,IC50,second compound 0.316 µM,535 nM
same,IC50,second compound 1 µM,443 nM
same,IC50,second compound 3.16 µM,634 nM
same,IC50,second compound 10 µM,468 nM
same,"viability, T/C",[1],106%
same,"viability, T/C",[2],77.5%
same,"viability, T/C",[3],64%
same,"viability, T/C",[4],28.1%
same,"viability, T/C",[5],16.5%
same,"viability, T/C",[6],8.85%
same,"viability, T/C",[7],109%
same,"viability, T/C",[8],89%
same,"viability, T/C",[9],64%
same,"viability, T/C",[10],24.4%
same,"viability, T/C",[11],12.6%
same,"viability, T/C",[12],7.89%
same,"viability, T/C",[13],106%
same,"viability, T/C",[14],92.4%
same,"viability, T/C",[15],64.9%
same,"viability, T/C",[16],31.9%
same,"viability, T/C",[17],17.5%
same,"viability, T/C",[18],9.34%
same,"viability, T/C",[19],84.7%
same,"viability, T/C",[20],82.3%
same,"viability, T/C",[21],57.7%
same,"viability, T/C",[22],29.1%
same,"viability, T/C",[23],10.7%
same,"viability, T/C",[24],9.06%
same,"viability, T/C",[25],96.4%
same,"viability, T/C",[26],102%
same,"viability, T/C",[27],80.4%
same,"viability, T/C",[28],29.8%
same,"viability, T/C",[29],11.9%
same,"viability, T/C",[30],7.51%
same,"viability, T/C",[31],91.6%
same,"viability, T/C",[32],88.9%
same,"viability, T/C",[33],57.8%
same,"viability, T/C",[34],30.9%
same,"viability, T/C",[35],14%
same,"viability, T/C",[36],7.25%
O=C(c1cc(Cc2n[nH]c(=O)c3ccccc23)ccc1F)N1CCN(C(=O)C2CC2)CC1 + Nc1ccc(C#CCN(C(=O)Cc2ncc(C(F)(F)F)cc2C(F)(F)F)c2ccc(F)cc2)nn1,IC50,second compound 0.0316 µM,> 10000 nM
same,IC50,second compound 0.1 µM,> 10000 nM
same,IC50,second compound 0.316 µM,> 10000 nM
same,IC50,second compound 1 µM,> 10000 nM
same,IC50,second compound 3.16 µM,> 10000 nM
same,IC50,second compound 10 µM,> 10000 nM
same,"viability, T/C",[1],82.5%
same,"viability, T/C",[2],96.2%
same,"viability, T/C",[3],84.5%
same,"viability, T/C",[4],94.9%
same,"viability, T/C",[5],81.9%
same,"viability, T/C",[6],80.4%
same,"viability, T/C",[7],101%
same,"viability, T/C",[8],110%
same,"viability, T/C",[9],86.5%
same,"viability, T/C",[10],88.2%
same,"viability, T/C",[11],80.7%
same,"viability, T/C",[12],73.8%
same,"viability, T/C",[13],100%
same,"viability, T/C",[14],93.8%
same,"viability, T/C",[15],89.7%
same,"viability, T/C",[16],99%
same,"viability, T/C",[17],82.8%
same,"viability, T/C",[18],77.8%
same,"viability, T/C",[19],97.5%
same,"viability, T/C",[20],90.6%
same,"viability, T/C",[21],85%
same,"viability, T/C",[22],83.2%
same,"viability, T/C",[23],82%
same,"viability, T/C",[24],69.3%
same,"viability, T/C",[25],86.3%
same,"viability, T/C",[26],89.9%
same,"viability, T/C",[27],91.4%
same,"viability, T/C",[28],87.6%
same,"viability, T/C",[29],98.3%
same,"viability, T/C",[30],81.6%
same,"viability, T/C",[31],87.6%
same,"viability, T/C",[32],85.8%
same,"viability, T/C",[33],80.1%
same,"viability, T/C",[34],73.7%
same,"viability, T/C",[35],81.5%
same,"viability, T/C",[36],66.1%
CC1COCCN1c1cc(-c2ccnn2C)c2ccnc(-c3ccn[nH]3)c2n1 (stereo not given) + Cc1cccc(N(C)C(=O)C2C(O)CCN2c2nc(C)cc(C(F)(F)F)c2C#N)c1,IC50,second compound 0.0316 µM,388 nM
same,IC50,second compound 0.1 µM,340 nM
same,IC50,second compound 0.316 µM,298 nM
same,IC50,second compound 1 µM,414 nM
same,IC50,second compound 3.16 µM,433 nM
same,IC50,second compound 10 µM,313 nM
same,"viability, T/C",[1],94.8%
same,"viability, T/C",[2],75.6%
same,"viability, T/C",[3],58%
same,"viability, T/C",[4],27.5%
same,"viability, T/C",[5],12.6%
same,"viability, T/C",[6],8.02%
same,"viability, T/C",[7],106%
same,"viability, T/C",[8],81.6%
same,"viability, T/C",[9],51.1%
same,"viability, T/C",[10],28%
same,"viability, T/C",[11],12.6%
same,"viability, T/C",[12],7.36%
same,"viability, T/C",[13],106%
same,"viability, T/C",[14],76.7%
same,"viability, T/C",[15],52.3%
same,"viability, T/C",[16],23.1%
same,"viability, T/C",[17],12.2%
same,"viability, T/C",[18],10.2%
same,"viability, T/C",[19],83.7%
same,"viability, T/C",[20],99.3%
same,"viability, T/C",[21],56.1%
same,"viability, T/C",[22],24.1%
same,"viability, T/C",[23],12.2%
same,"viability, T/C",[24],8.86%
same,"viability, T/C",[25],73.2%
same,"viability, T/C",[26],77.7%
same,"viability, T/C",[27],53.8%
same,"viability, T/C",[28],32.8%
same,"viability, T/C",[29],10.1%
same,"viability, T/C",[30],6.72%
same,"viability, T/C",[31],90.7%
same,"viability, T/C",[32],76.5%
same,"viability, T/C",[33],50.2%
same,"viability, T/C",[34],23.3%
same,"viability, T/C",[35],10.8%
same,"viability, T/C",[36],7.42%
C=CC(=O)N1CCN(c2nc(=O)n(-c3c(C)ccnc3C(C)C)c3nc(-c4c(O)cccc4F)c(F)cc23)C(C)C1 (stereo not given) + COC1C(OC(N)=O)C(O)C(Oc2ccc3c(O)c(NC(=O)c4ccc(O)c(CC=C(C)C)c4)c(=O)oc3c2C)OC1(C)C,IC50,second compound 0.0316 µM,> 10000 nM
same,IC50,second compound 0.1 µM,> 10000 nM
same,IC50,second compound 0.316 µM,> 10000 nM
same,IC50,second compound 1 µM,> 10000 nM
same,IC50,second compound 3.16 µM,> 10000 nM
same,IC50,second compound 10 µM,8270 nM
same,"viability, T/C",[1],83.3%
same,"viability, T/C",[2],95.4%
same,"viability, T/C",[3],76.5%
same,"viability, T/C",[4],86.8%
same,"viability, T/C",[5],64.2%
same,"viability, T/C",[6],52.5%
same,"viability, T/C",[7],92.6%
same,"viability, T/C",[8],91.6%
same,"viability, T/C",[9],85.1%
same,"viability, T/C",[10],80.8%
same,"viability, T/C",[11],80.1%
same,"viability, T/C",[12],65.6%
same,"viability, T/C",[13],101%
same,"viability, T/C",[14],96.2%
same,"viability, T/C",[15],87.3%
same,"viability, T/C",[16],85.8%
same,"viability, T/C",[17],68.5%
same,"viability, T/C",[18],53.6%
same,"viability, T/C",[19],81.3%
same,"viability, T/C",[20],87.9%
same,"viability, T/C",[21],77.1%
same,"viability, T/C",[22],80.9%
same,"viability, T/C",[23],77.2%
same,"viability, T/C",[24],59.4%
same,"viability, T/C",[25],74.1%
same,"viability, T/C",[26],87.7%
same,"viability, T/C",[27],77.4%
same,"viability, T/C",[28],75.7%
same,"viability, T/C",[29],74.5%
same,"viability, T/C",[30],56.5%
same,"viability, T/C",[31],77.4%
same,"viability, T/C",[32],96%
same,"viability, T/C",[33],103%
same,"viability, T/C",[34],73.6%
same,"viability, T/C",[35],76.1%
same,"viability, T/C",[36],45.1%
